Laboratory results: patent US4220577A, “Iodopropargyl pyridyl and picolinyl ethers and thioethers as paint fungicides” (Givaudan Corporation, priority 1979, dated 1980)
≈ marks a conversion by molar mass, not a printed value.

How the values were obtained:
Assay type in all cases: cell-based
[1] = tested on: Aureobasidium pullulans (strain 2); assay: Antifungal activity of painted birch blades after exposure to heat and light; set-up: key to Surface Growth: 0: No growth; 1: Slight growth; 2: Moderate growth; 3: Heavy growth; conditions: after light (300-400 nm) and heat (40° C.) four weeks
Experimental: Successful paint fungicides must be stable when exposed to the elements such as heat and light. Such stability was tested in the laboratory by exposing painted sticks to heat and light. The compounds of this invention were incorporated into an exterior vinyl acetate latex paint as described in Example XXI. Birch blades (tongue depressors) were painted (two coats) and continuously exposed to light (wavelength 300-400 nm) and heat (40° C.) for four consecutive weeks. At the end of the exposure time, one-inch squares of the painted birch blades were cut and tested according to the procedure of Example XXI, using strain 2.

[2] = tested on: Aureobasidium pullulans (strain 1); assay: Antifungal activity on painted surfaces, strain 1; set-up: key to Surface Growth: 0: No growth; 1: Slight growth; 2: Moderate growth; 3: Heavy growth; conditions: Strain 1, three weeks
Experimental: (§1) Any antifungal agent which can be used to prevent mildew on painted surfaces must be effective against Aureobasidium pullulans, the organism which is primarily responsible for mildew on painted surfaces. The effectiveness of the novel compounds was tested by incorporating the compound into an exterior latex paint, applying the paint to a surface, and testing the ability of the painted surface to prevent the growth of Aureobasidium pullulans. The tests were run as described below. The novel compounds were incorporated into an exterior vinyl acetate latex paint by mulling the compound into the paint. The compounds were tested in the paints at levels of 0.25% and 0.5%. One coat of this paint was applied to each side of a piece of Whatman #30 filter paper. Two one-inch squares were cut from the filter paper. Each square was centered on the agar surface of separate Petri dishes containing malt agar. One square was inoculated with a suspension of Aureobasidium pullulans (strain 1) which was an in-house strain used for routine antimicrobial testing. The second square was inoculated with a suspension of Aureobasidium pullulans (strain 2) which was grown from a culture obtained from the surface of a mildew infested panel. Squares painted with the same exterior vinyl acetate latex paint, but without the novel compounds of this invention, were run in parallel. The Petri dishes were then incubated at 27° C. and at greater than 90% humidity for a three week period and observed for zones of inhibition and surface growth.

[3] = tested on: Aureobasidium pullulans (strain 2); assay: Antifungal activity on painted surfaces, strain 2; set-up: key to Surface Growth: 0: No growth; 1: Slight growth; 2: Moderate growth; 3: Heavy growth; key to Zone of Inhibition: 0: no zone; 1-5 mm; 2: 6-10 mm; 3: 11-15 mm; 4: 16-20 mm; 5: >20 mm; conditions: Strain 2, three weeks
Experimental: as §1

Proteus vulgaris = assay: 5-fold serial dilution test in agar, MIC, B4; conditions: 37° C., 48 hours, read-out: Minimum Inhibitory Concentration Range
Experimental: (§2) Antibacterial and antifungal activity were evaluated by a 5-fold serial dilution test in agar. In this test, compounds were prepared as 6% solutions in dimethylformamide or ethanol. The 6% solution was then 5-fold serially diluted in test tubes to give the desired concentrations when mixed with agar and poured into sterile Petri dishes. Trypticase glucose extract agar was used for the bacterial testing; mildew glucose agar for the fungal testing. The bacterial plates were spot inoculated with 24-hour nutrient broth cultures and incubated at 37° C. for 48 hours. The fungal plates were spot inoculated with spore suspensions and incubated at 28° C. for seven days. At the end of the incubation periods, all plates were examined for growth. The minimum inhibitory concentration (MIC) for each organism is expressed in Table I. In the ranges presented, growth is observed only at the lower concentration.

Aureobasidium pullulans = assay: 5-fold serial dilution test in agar, MIC, F4; conditions: 168 h, 28° C., seven days, read-out: Minimum Inhibitory Concentration Range
Experimental: as §2
F4 Aureobasidium pullulans

Bacillus subtilis = assay: 5-fold serial dilution test in agar, MIC, B5; conditions: 37° C., 48 hours, read-out: Minimum Inhibitory Concentration Range
Experimental: as §2
B5 Bacillus subtilis 4 3 μg/ml

Penicillium piscarium = assay: 5-fold serial dilution test in agar, MIC, F3; conditions: 168 h, 28° C., seven days, read-out: Minimum Inhibitory Concentration Range
Experimental: as §2
F3 Penicillium piscarium

Escherichia coli = assay: 5-fold serial dilution test in agar, MIC, B2; conditions: 37° C., 48 hours, read-out: Minimum Inhibitory Concentration Range
Experimental: as §2

Aspergillus niger = assay: 5-fold serial dilution test in agar, MIC, F1; conditions: 168 h, 28° C., seven days, read-out: Minimum Inhibitory Concentration Range
Experimental: as §2

Staphylococcus aureus = assay: 5-fold serial dilution test in agar, MIC, B1; conditions: 37° C., 48 hours, read-out: Minimum Inhibitory Concentration Range
Experimental: as §2
B1 Staphylococcus aureus

Pseudomonas aeruginosa = assay: 5-fold serial dilution test in agar, MIC, B3; conditions: 37° C., 48 hours, read-out: Minimum Inhibitory Concentration Range
Experimental: as §2
B3 Pseudomonas aeruginosa

Aspergillus oryzae = assay: 5-fold serial dilution test in agar, MIC, F2; conditions: 168 h, 28° C., seven days, read-out: Minimum Inhibitory Concentration Range
Experimental: as §2

[4] = 0.25% in vinyl acetate latex paint
[5] = 0.5% in vinyl acetate latex paint

MIC (Proteus vulgaris) [µg/mL] | MIC (Aureobasidium pullulans) [µg/mL] | MIC (Bacillus subtilis) [µg/mL] | MIC (Penicillium piscarium) [µg/mL] | MIC (Escherichia coli) [µg/mL] | MIC (Aspergillus niger) [µg/mL] | MIC (Staphylococcus aureus) [µg/mL] | MIC (Pseudomonas aeruginosa) [µg/mL] | MIC (Aspergillus oryzae) [µg/mL] | SMILES | Surface Growth ([1]; 0.25%) | also measured
 |  |  |  |  |  |  |  |  | IC#CCOc1cccnc1 [drawing 19] | 0 | Surface Growth ([1]; 0.5%): 0; Zone of Inhibition ([1]; 0.5%): 1 (1-5 mm)
 |  |  |  |  |  |  |  |  | IC#CCOCc1cccnc1 [drawing 16] |  | Surface Growth [2, 4]: 0; Zone of Inhibition [2, 4]: 4 (16-20 mm); Surface Growth [2, 5]: 0; Zone of Inhibition [2, 5]: 5 (>20 mm); Surface Growth [3, 4]: 0; Zone of Inhibition [3, 4]: 3 (11-15 mm); Surface Growth [3, 5]: 0; Zone of Inhibition [3, 5]: 4 (16-20 mm)
> 1920 | 0.12 to 0.6 (≈ 0.436 to 2.18 µM) | > 1920 | 0.12 to 0.6 (≈ 0.436 to 2.18 µM) | > 1920 | 15 to 76 (≈ 54.5 to 276 µM) | > 1920 | > 1920 | < 0.03 | IC#CCSc1cccnc1 [drawing 7] |  | 
15 to 76 (≈ 54.9 to 278 µM) | 0.6 to 3 (≈ 2.2 to 11 µM) | 76 to 384 (≈ 278 to 1410 µM) | 0.12 to 0.6 (≈ 0.439 to 2.2 µM) | 76 to 384 (≈ 278 to 1410 µM) | 0.03 to 0.12 (≈ 0.11 to 0.439 µM) | 76 to 384 (≈ 278 to 1410 µM) | > 1920 | 0.12 to 0.6 (≈ 0.439 to 2.2 µM) | IC#CCOCc1cccnc1 [drawing 8] |  | 
> 1920 | < 0.03 | > 1920 | 0.03 to 0.12 (≈ 0.11 to 0.439 µM) | > 1920 | < 0.03 | > 1920 | > 1920 | < 0.03 | Cc1ccc(OCC#CI)cn1 [drawing 3] |  | 
 |  |  |  |  |  |  |  |  | IC#CCSc1cccnc1 [drawing 24] | 3 | Surface Growth ([1]; 0.5%): 2
 |  |  |  |  |  |  |  |  | Cc1ccc(OCC#CI)cn1 [drawing 20] | 0 | 
 |  |  |  |  |  |  |  |  | IC#CCSc1cccnc1 [drawing 15] |  | Surface Growth [2, 4]: 0; Zone of Inhibition [2, 4]: 2 (6-10 mm); Surface Growth [2, 5]: 0; Zone of Inhibition [2, 5]: 3 (11-15 mm); Surface Growth [3, 4]: 0; Zone of Inhibition [3, 4]: 0; Surface Growth [3, 5]: 0; Zone of Inhibition [3, 5]: 2 (6-10 mm)
 |  |  |  |  |  |  |  |  | Clc1ncccc1OCC#CI [drawing 21] | 0 | 
 |  |  |  |  |  |  |  |  | IC#CCSc1ccncc1 [drawing 18] |  | Surface Growth [2, 4]: 0; Surface Growth [2, 5]: 0; Zone of Inhibition [2, 5]: 1 (1-5 mm); Surface Growth [3, 4]: 0; Zone of Inhibition [3, 4]: 0; Surface Growth [3, 5]: 0; Zone of Inhibition [3, 5]: 0
 |  |  |  |  |  |  |  |  | IC#CCOc1ccncc1 [drawing 17] |  | Surface Growth [2, 5]: 0; Zone of Inhibition [2, 5]: 2 (6-10 mm); Surface Growth [3, 5]: 0; Zone of Inhibition [3, 5]: 1 (1-5 mm)
 |  |  |  |  |  |  |  |  | IC#CCOCc1cccnc1 [drawing 25] | 0 | Surface Growth ([1]; 0.5%): 0; Zone of Inhibition ([1]; 0.5%): 1 (1-5 mm)
76 to 384 (≈ 293 to 1480 µM) | 0.12 to 0.6 (≈ 0.463 to 2.32 µM) | 3 to 15 (≈ 11.6 to 57.9 µM) | 0.03 to 0.12 (≈ 0.116 to 0.463 µM) | 384 to 1920 (≈ 1480 to 7410 µM) | < 0.03 | 384 to 1920 (≈ 1480 to 7410 µM) | > 1920 | 0.03 to 0.12 (≈ 0.116 to 0.463 µM) | IC#CCOc1ccncc1 [drawing 9] |  | 
3 to 15 (≈ 11.6 to 57.9 µM) | 0.12 to 0.6 (≈ 0.463 to 2.32 µM) | 3 to 15 (≈ 11.6 to 57.9 µM) | 0.12 to 0.6 (≈ 0.463 to 2.32 µM) | 76 to 384 (≈ 293 to 1480 µM) | 0.03 to 0.12 (≈ 0.116 to 0.463 µM) | 15 to 76 (≈ 57.9 to 293 µM) | > 1920 | 0.12 to 0.6 (≈ 0.463 to 2.32 µM) | IC#CCOc1cccnc1 [drawing 2] |  | 
